This is an account of results in publication PMC12299903 (Pharmaceuticals, 2025).

The test system of data set [1] is trypsin. Briefly: trypsin in 20 mM Tris-HCl buffer (pH 8.0). The note with it: 37 °C, up to 4 h.
Data set [2] has as its system trypsin. Briefly: Proteolytic degradation by trypsin (HPLC). It is filed as in vitro ADME. As to conditions: trypsin 1:50 (w/w), 100 µM peptide, 20 mM Tris-HCl pH 8.0, 37 °C, time points 1 min to 4 h; for time to complete degradation by trypsin: HPLC-UV. Here is the method: Lunatin–AAAE and EAAA–lunatin and their nanoparticle-functionalized counterparts (NP-Lun-EN and NP-Lun-EC) were suspended in 20 mM Tris-HCl buffer (pH 8.0) at a final peptide concentration of 100 µM and exposed to enzymatic digestion with trypsin at 37 °C, using an enzyme-to-substrate ratio of 1:50 (w/w) in a final volume of 1000 µL. Incubation was performed using an AccuBlock™ Digital Dry Bath (Ciencor),. Aliquots of 200 µL were withdrawn at different time points (1 min, 5 min, 10 min, 30 min, 1 h, 2 h, 3 h, and 4 h), and enzymatic activity was quenched by adding 40 µL of 1 M HCl. Samples were centrifugated and supernatant filtered in whatman® alumina anodisc filter discs 0.02 μm pore size, previously injected in a high-performance liquid chromatography system (Varian® ProStar 315 system equipped with a UV detector), using an Agilent AdvanceBio Peptide Mapping column (4.6 × 150 mm), and 50 µL injection loop.

In data set [3] the test system is Streptococcus agalactiae (ATCC 29313). As to the kind of experiment: Antibacterial assay, MIC (broth microdilution, resazurin). The data set is classed as cell-based. The note with it: Mueller-Hinton broth, CLSI M07-A9, 1:2 serial dilution from 128.5 μM, 37 °C 20 h, resazurin read-out, triplicate; conjugates dosed as peptide concentration. How it is done: (§1) The peptide Lun-1 and the peptide-conjugated nanoparticles (Lun-EN and Lun-EC) were investigated against […] bacterial strains—Pseudomonas aeruginosa, Staphylococcus aureus, Acinetobacter, Escherichia coli, and Streptococcus agalactiae, all from American Type Culture Collection (Manassas, VA, USA). Details can be found in the SM. […]
(§2) phase at 35 °C and subsequently transferred to Mueller-Hinton broth according to the guidelines established by the M07 -A9 CLSI. Methods for the dilution antimicrobial susceptibility tests for b acteria that grow aerobically were from the Approved Standard—Ninth Edition. CLSI document M07 -A9. Wayne, PA: Clinical and Laboratory Standards Institute; 2012. Bacterial suspensions were adjusted to the turbidity equivalent to 0.5 McFarland standard ([…]), by spectrophotometric measurement at 625 nm (Bel Photonics S2000 UV, São Paulo, Brazil).
(§3) The suspension was then diluted 1:20, and 50 μL aliquots were distributed into 96-well flat-bottom microplates (Nümbrecht, Germany).
(§4) Chloramphenicol (30 μg·mL⁻¹; 92.8 μM) was used as standard drug and served as positive control for growth bacterial inhibition. Wells containing 50 μL of bacterial inoculum and 50 μL of sterile culture medium were used as negative controls. Free peptides were tested at a maximum concentration of 128.5 μM and diluted via serial dilution (1:2) up to seven times in Mueller–Hinton broth. For the nanoparticle– peptide conjugations concentration s were adjusted according to the degree of functionalization to ensure accurate dosing of the active peptide component.
(§5) Plates were incubated at 37 °C for 20 hours. After incubation, 30 μL of a 0.01% (w/v) resazurin solution (10-oxido -7 -oxophenoxazin-10 -ium -3 -olate; Sigma -Aldrich, St. Louis, MO, USA) was added to each well. Plates were protected from light and incubated for an additional 4 hours to allow colorimetric development. The tests whose bacteria did not develop a pink color after incubation (maintaining the blue coloration) were […]

Data set [4] deals with Pseudomonas aeruginosa (ATCC27853). Described as above. The data set is classed as cell-based. The note with it: Mueller-Hinton broth, CLSI M07-A9, 1:2 serial dilution from 128.5 μM, 37 °C 20 h, resazurin read-out, triplicate; conjugates dosed as peptide concentration. Here is the method: as §1, §2, §3, §4, §5
Data set [5] relates to Acinetobacter (ATCC17978). The data set is described as above. It is filed as cell-based. The note with it: Mueller-Hinton broth, CLSI M07-A9, 1:2 serial dilution from 128.5 μM, 37 °C 20 h, resazurin read-out, triplicate; conjugates dosed as peptide concentration. Here is the method: as §1, §2, §3, §4, §5
The test system of data set [6] is Staphylococcus aureus (ATCC29213). The data set is described as above. The data set is classed as cell-based. The note with it: Mueller-Hinton broth, CLSI M07-A9, 1:2 serial dilution from 128.5 μM, 37 °C 20 h, resazurin read-out, triplicate; conjugates dosed as peptide concentration. How it is done: as §1, §2, §3, §4, §5
Data set [7] relates to Escherichia coli (ATCC25922). The data set is described as above. The data set is classed as cell-based. As to conditions: Mueller-Hinton broth, CLSI M07-A9, 1:2 serial dilution from 128.5 μM, 37 °C 20 h, resazurin read-out, triplicate; conjugates dosed as peptide concentration. How it is done: as §1, §2, §3, §4, §5
A further data set in a line: Zeta potential. It is filed as physicochemical. As to conditions: 0.2 mg·mL^−1 in 10 mM Tris-HCl, pH 8.0, 100 mM NaCl; 25 °C; mean of triplicate ± SD. How it is done: Zeta potential and Hydrodynamic Diameter measurements were performed at room temperature (or 25 °C) on a Zetasizer Nano instrument (Malvern® ZS model BI-900, Worcestershire, UK). A 700 µL Malvern® cuvette (model DTS1061) was used for the analysis. The measurements were conducted, utilizing monochromatic light scattering (10 mW Ne laser, λ = 632.4 nm), with the light intensity measured at a 90° angle. Zeta potential (z) were carried out at 0.2 mg·mL^−1 of NP, NP-OH, NP-NH2, NP-Lun-EN, and NP-Lun-EC dispersed in a 10 mM Tris-HCl buffer, pH 8.0, containing 100 mM NaCl.

The nature of data set [8]: Circular dichroism, secondary structure content. It is filed as physicochemical. The note with it: 10 mM Tris-HCl, 100 mM NaCl, pH 8.5, 25 µM peptide, 25 °C. Here is the method: Circular dichroism spectra were recorded using a JASCO J-815 spectrometer (Easton, MD, USA) equipped with a Peltier Jasco model PTC-423 L temperature control system. Spectra were obtained using a quartz cuvette with a 1 cm optical path at a temperature of 25 °C, covering a wavelength range from 190 to 260 nm with eight consecutive scans per sample. The scan speed was set at 100 nm/min and the response time was 4 s. The bandwidth was 1 nm, and ellipticity readings were taken every 0.2 nm. The Lun-1 (25 µM), NP (0.155 mg·mL^−1), NP-Lun-EN (0.17 mg·mL^−1–25 µM of peptide concentration), and NP-Lun-EC (0.18 mg·mL^−1–25 µM of peptide concentration) samples were (corresponding to 25 µM of peptide in NP-Lun-EN and NP-Lun-EC) suspended in 10 mM Tris-HCl buffer solution at pH 8.5 containing 100 mM NaCl or in 200 µM POPC:POPG (3:1, mol:mol) LUVs suspended in the same buffer solution. Data processing and deconvolution calculations to obtain the contents of secondary structures were carried out using the CDpro® program.

Data set [9] can be described thus: Differential scanning calorimetry of model membranes. As to conditions: for Tm of LUVs: 3 mM DMPC:DMPG (3:1) LUVs, 10 mM Tris-HCl pH 7.5, pure LUVs 23.1, triplicate, ± 0.2 °C. How it is done: The phase transition profile of 1,2-dimyristoyl-sn-glycero-3-phosphocholine and 1,2-dimyristoyl-sn-glycero-3-phosphocholine/1,2-dimyristoyl-sn-glycero-3-phosphoglycerol (DMPC:DMPG. 3:1, mol:mol) at 3 mM was investigated in the absence and presence of Lun-1, NP, NP-Lun-EN, and NP-Lun-EC at different concentrations (Table S1, using a VP-DSC® microcalorimeter (Malvern® Instruments, Malvern, UK). All mixtures of LUVs and peptide–LUVs were prepared immediately prior to the experiments. The samples were pre-degassed and tested against a 10 mM Tris-HCl buffer (pH 7.5) containing 50 mM NaCl in the reference cell. Buffer-only experiments were also performed in all cells for subsequent background subtraction. Each sample underwent three successive heating scans in the temperature range of 10–35 °C at a heating rate of 1.0 °C.min^−1. Data analyses were performed using Microcal Origin® DSC software version 5.0 (GE HealthCare-Microcal®, Amherst, MA, USA), which was employed to subtract the blank and determine the transition temperature (Tm) and transition enthalpy (DtransH) from the gel phase to the liquid crystalline phase.

Values after ≈ are worked out from the molar mass of the structure shown. “Also recorded” adds a separate entry of the source. Where a SMILES comes first, the peptide text is derived from it. Where no end group is shown, it is not given here.

As for EAAAFIGGLLKTLTSFF-NH2 [Lun-EN], the fragment found entry in the data set on trypsin [1] is given as “TLTSFF, 1 min; also recorded: EAAAFIGGLLK, 1 min”.
`CC[C@H](C)[C@H](NC(=O)[C@H](Cc1ccccc1)NC(=O)[C@H](C)NC(=O)[C@H](C)NC(=O)[C@H](C)NC(=O)[C@@H](N)CCC(=O)O)C(=O)NCC(=O)NCC(=O)N[C@@H](CC(C)C)C(=O)N[C@@H](CC(C)C)C(=O)N[C@@H](CCCCN)C(=O)N[C@H](C(=O)N[C@@H](CC(C)C)C(=O)N[C@H](C(=O)N[C@@H](CO)C(=O)N[C@@H](Cc1ccccc1)C(=O)N[C@@H](Cc1ccccc1)C(N)=O)[C@@H](C)O)[C@@H](C)O` [Lun-EN] (H-EAAAFIGGLLKTLTSFF-NH2): the “time to complete degradation by trypsin” value with trypsin [2] stood at 10 min.
For FIGGLLKTLTSFFAAAE-NH2 [Lun-EC], the fragment found result in the data set on trypsin [1] is reported as “FIGGLLK, 1 min; also recorded: TLTSFFAAAE, 1 min”.
On the same count and under the same terms, with FIGGLLKTLTSFFAAAE-NH2 [NP-Lun-EC] the entry was “FIGGLLK, 2 h”; with EAAAFIGGLLKTLTSFF-NH2 [NP-Lun-EN], “TLTSFF, 2 h”.
`CC[C@H](C)[C@H](NC(=O)[C@@H](N)Cc1ccccc1)C(=O)NCC(=O)NCC(=O)N[C@@H](CC(C)C)C(=O)N[C@@H](CC(C)C)C(=O)N[C@@H](CCCCN)C(=O)N[C@H](C(=O)N[C@@H](CC(C)C)C(=O)N[C@H](C(=O)N[C@@H](CO)C(=O)N[C@@H](Cc1ccccc1)C(=O)N[C@@H](Cc1ccccc1)C(=O)N[C@@H](C)C(=O)N[C@@H](C)C(=O)N[C@@H](C)C(=O)N[C@@H](CCC(=O)O)C(N)=O)[C@@H](C)O)[C@@H](C)O` [Lun-EC] (H-FIGGLLKTLTSFFAAAE-NH2): the “time to complete degradation by trypsin” value with trypsin [2] amounted to 10 min.
Consider `CC[C@H](C)[C@H](NC(=O)[C@@H](N)Cc1ccccc1)C(=O)NCC(=O)NCC(=O)N[C@@H](CC(C)C)C(=O)N[C@@H](CC(C)C)C(=O)N[C@@H](CCCCN)C(=O)N[C@H](C(=O)N[C@@H](CC(C)C)C(=O)N[C@H](C(=O)N[C@@H](CO)C(=O)N[C@@H](Cc1ccccc1)C(=O)N[C@@H](Cc1ccccc1)C(N)=O)[C@@H](C)O)[C@@H](C)O` [Lun-1, lunatin-1] (H-FIGGLLKTLTSFF-NH2), for which the MIC amounted to 16.0 µM (≈ 23.1 µg/mL) in [3]; 32.1 µM (≈ 46.3 µg/mL) in [4]; 32.1 µM (≈ 46.3 µg/mL) in data set [5]; 8.0 µM (≈ 11.5 µg/mL) in data set [6]; 64.2 µM (≈ 92.6 µg/mL) in data set [7].
Lun-1-AAAECterm-NP [NP-Lun-EC]: the ζ-potential entry in the data set “Zeta potential” is “+5.8 ± 0.8 mV”. In addition, in [8] (in buffer, CDpro), the “a-helical percentage (CD deconvolution)” value is 30%. The “β-sheet percentage (CD deconvolution)” value in data set [8] (in buffer, CDpro) is reported as 40%. Moreover, the “α-helix content (CD deconvolution)” value in data set [8] (in presence of 200 µM POPC:POPG (3:1) LUVs) turned out to be 55%. In addition, the “Tm of LUVs” value is 22.7 °C in [9] (10 µM peptide), 22.0/22.0 °C in data set [9] (25 µM peptide), 21.1 °C in data set [9] (50 µM peptide) and 19.8 °C in [9] (100 µM peptide). In data set [9] (DMPC:DMPG (3:1) LUVs, versus pure LUVs), the “lowering of transition temperature (DTm)” value was found to be 3.3 °C. Also, the MIC stood at 16.0 µM in data set [3]; 32.1 µM in data set [4]; 40.0 µM in data set [5]; 16.0 µM in data set [6]; 48.0 µM in data set [7]. For the same molecule, the “time after which progressive degradation (cleavage fragment peaks) is observed with trypsin” value in the data set with trypsin [2] (HPLC-UV of filtered supernatant) is reported as 2 h.
